In article PMC4022860, “Fragments of Bacterial Endoglycosidase S and Immunoglobulin G Reveal Subdomains of Each That Contribute to Deglycosylation” (The Journal of Biological Chemistry, 2014):

Molecular target: T1, EndoS CBM (carbohydrate binding module of endoglycosidase S) (Streptococcus pyogenes, UniProt Q99Y92)
T1 construct: isolated CBM domain, residues 761-924, C-terminal hexahistidine tag (pET303), 15N-labelled, expressed in E. coli BL21(DE3)
Assay: 1H, […] HSQC NMR titration
Settings: 0.15 mM 15N-CBM; 62.5 mM to 2 M ligand; 10 mM BisTris, pH 6.5, 15 mM NaCl, 37 °C

T1 sequence (Q99Y92 761-924): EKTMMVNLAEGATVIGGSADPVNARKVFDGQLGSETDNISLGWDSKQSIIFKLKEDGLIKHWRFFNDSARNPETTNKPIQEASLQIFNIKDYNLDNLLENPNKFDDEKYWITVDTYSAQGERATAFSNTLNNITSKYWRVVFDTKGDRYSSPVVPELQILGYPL

Q: With `OC[C@H]1OC(O)[C@H](O)[C@@H](O)[C@H]1O` (stereo partly drawn) [D-galactose] as the compound, how does the “1H,15N HSQC NMR titration” value read?
A: four distinct peaks appeared upon D-galactose titration, which were visible from the lowest titration point
